Experimental data as given in US9296687B2, “Modulators of HSP70/DnaK function and methods of use thereof” (The Trustees of the University of Pennsylvania, priority 2008, dated 2016).

System: Eμ-Myc transgenic mice
Test: Eμ-Myc mouse model of lymphomagenesis
Assay type: in vivo
Method: To evaluate the efficacy of PES as a chemopreventative agent, Eμ-Myc transgenic mice were injected every 5 days, starting at 8 weeks of age, with either vehicle or PES (40 mg/kg) prepared in PBS. All animals received a total of 7 injections, either with PES or vehicle. Consequently, no injection was given after day 86. All mice were observed daily for signs of morbidity and the development of lymphoma. All experiments with mice were approved by, and conformed to, the guidelines of the Institutional Animal Care and Use Committee of the Fox Chase Cancer Center. These mice may also be used to advantage to test the beneficial therapeutic combinations of agents and/or treatments described herein.
Beginning at 6 weeks of age, Eμ-myc transgenic mice were treated either with vehicle, 20 mg/kg PES or 20 mg/kg PES-Cl with weekly i.p. injections of tested compound (FIG. 27).

`NS(=O)(=O)C#Cc1ccccc1` [PES, 2-Phenylethynesulfonamide] was tested, and the tumor development (40 mg/kg i.p. once every five days for 30 days) was “markedly impaired tumor development” and the “overall mean survival time” value (40 mg/kg intra-peritoneally every 5 days for 30 days) was > 140 days.
